Data published in ChEMBL document CHEMBL1275494, “Microbiological and genotypic analysis of methicillin-resistant Staphylococcus aureus bacteremia” (2008).
Active and inactive are the calls of the source. The rule behind the calls is not given here.

Columns and labels:
[1] = tested on: Staphylococcus aureus; test: Antibacterial activity against SCCmec type 2 genotype-positive and methicillin-resistant Staphylococcus aureus by CLSI method; type: functional, organism-based
[2] = tested on: Staphylococcus aureus; test: Antibacterial activity against SCCmec type 4 genotype-positive and methicillin-resistant Staphylococcus aureus by CLSI method; type: functional, organism-based

CCC[C@@H]1C[C@@H](C(=O)N[C@@H]([C@H]2O[C@H](SC)[C@H](O)[C@@H](O)[C@H]2O)[C@H](C)Cl)N(C)C1
Activity [1]: inactive | Activity [2]: Active

CN(C)[C@@H]1C(O)=C(C(N)=O)C(=O)[C@@]2(O)C(O)=C3C(=O)c4c(O)cccc4[C@@](C)(O)[C@H]3C[C@@H]12
Activity [2]: inactive

C[C@H]1COc2c(N3CCN(C)CC3)c(F)cc3c(=O)c(C(=O)O)cn1c23
Activity [1]: inactive | Activity [2]: Active
